Where two headings read alike, the source gives them in different places.
Tests used:
[1] = target: T1, wild type aromatase (CYP19A1*1) (Homo sapiens, UniProt P11511); test: Anti-aromatase activity assay, estrone formation by UPLC/MS/MS, microsomes of HEK293 overexpressing wild type aromatase; assay type: biochemical
T1 sequence (P11511 1-503): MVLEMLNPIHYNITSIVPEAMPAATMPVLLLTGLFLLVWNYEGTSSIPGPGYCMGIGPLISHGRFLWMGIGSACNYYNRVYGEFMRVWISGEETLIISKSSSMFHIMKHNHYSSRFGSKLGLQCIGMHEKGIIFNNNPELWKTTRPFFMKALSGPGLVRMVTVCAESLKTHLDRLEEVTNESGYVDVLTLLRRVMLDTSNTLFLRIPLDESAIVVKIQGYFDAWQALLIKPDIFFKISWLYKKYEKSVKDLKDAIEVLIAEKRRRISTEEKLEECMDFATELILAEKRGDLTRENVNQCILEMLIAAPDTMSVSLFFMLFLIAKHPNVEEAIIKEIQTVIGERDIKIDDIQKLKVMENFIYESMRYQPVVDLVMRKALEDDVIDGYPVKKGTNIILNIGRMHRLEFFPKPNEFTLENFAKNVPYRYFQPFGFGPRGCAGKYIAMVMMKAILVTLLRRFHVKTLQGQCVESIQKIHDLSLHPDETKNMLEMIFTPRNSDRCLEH

[2] = EXE metabolite identification in human liver microsomes by UPLC/MS/MS; assay type: in vitro ADME; conditions: 50 μg HLM, 400 μmol/L EXE, NADPH regeneration system, 37°C, 4 h; for identified as phase I EXE metabolite in incubations of EXE with pooled human liver microsomes: comparison to reference compounds
[3] = test system: aromatase; design: method as in Buzzetti et al. 1993; conditions: ref Buzzetti et al. 1993; cited from earlier work

SMILES	IC50 [1] [µM]	identified as phase I EXE metabolite in incubations of EXE with pooled human liver microsomes [2]	further results
C[C@]12C=CC(=O)C=C1[C@@]1(CO1)CC1C2CC[C@]2(C)C(=O)CCC12 (stereo partly drawn) [6α-spirooxiranandrosta-1,4-diene-3,17-dione]	1.2 ± 0.19	–	fold more potency than its 6β stereoisomer (wild type aromatase) ([1]; ratio of IC50 values versus 6β-spirooxiranandrosta-1,4-diene-3,17-dione): ~5 fold
C[C@]12C=CC(=O)C=C1C(O)(CO)CC1C2CC[C@]2(C)C(=O)CCC12 (stereo partly drawn) [6α/β-hydroxy-6α/β-hydroxymethylandrosta-1,4-diene-3,17-dione]	> 100	identified	–
C[C@]12C=CC(=O)C=C1C(CO)=CC1C2CC[C@]2(C)C(=O)CCC12 (some centres unmarked) [6-hydroxymethylandrosta-1,4,6-triene-3,17-dione]	61 ± 20	identified	fold less potent than EXE (wild type aromatase) ([1]; ratio of IC50 values versus EXE): 67 fold
C[C@]12C=CC(=O)C=C1C(O)(CO)CC1C2CC[C@@]2(C)C1CC[C@@H]2O (stereo partly drawn) [6α/β,17β-dihydroxy-6α/β-hydroxymethylandrosta-1,4-diene-3-one]	> 100	identified	–
C=C1CC2C(CC[C@@]3(C)C2CC[C@@H]3O)[C@@]2(C)C=CC(=O)C=C12 (stereo partly drawn) [17β-dihydroexemestane]	–	identified	fold less potent than EXE (earlier study) [3]: approximately 2.6 fold; abundance of the EXE metabolite formed in human liver microsomes [2]: predominant EXE metabolite
C[C@]12C=CC(=O)C=C1[C@]1(CO1)CC1C2CC[C@]2(C)C(=O)CCC12 (stereo partly drawn) [6β-spirooxiranandrosta-1,4-diene-3,17-dione]	5.7 ± 1.6	–	–
C[C@]12CC[C@H]3[C@@H](C=C(CO)C4=CC(=O)C=C[C@@]43C)[C@@H]1CC[C@@H]2O [17β-hydroxy-6-hydroxymethylandrosta-1,4,6-triene-3-one]	–	–	IC50 ([1]; 15 μg HEK293 microsomes, 5 μmol/L androstenedione, NADPH regeneration system, 37°C, 2 h, read-out: IC50 for wild-type aromatase): > 100 µM
